Tested on: calvaria
Assay: Inhibition of bone resorption (45Ca release from calvaria stimulated with hPTH (1-34), method of Raisz)
Assay type: cell-based, new born ICR mouse
Conditions: 45Ca release, 50 nM hPTH (1-34), 3 days incubation; test concentrations 0.04, 0.2 and 1 μM; mean of 4 pairs; read-out: IC50 (inhibition of bone resorption)
Source text: The determination of the inhibitory action on the bone resorption was basically in accordance with the method of Raisz [J. Clin. Invest. vol.
A new born ICR mouse (one or two days old) was intraperitoneally administered with 1.5μ Ci ^45 Ca (isotope of calcium as CaCl2 solution) and calvaria was aseptically removed the next day. The calvaria was split into two along the central suture line, and one of them was used as a control and the other was used as a test compound. The calvaria was preincubated at 37° C. for 2 days in BGJb medium [0.5 ml, Fitton-Jackson modification, GIBCO Laboratories, USA, containing bovine serum albumin 1 mg/ml] added with a test compound to the concentrations of 0.04 μM, 0.2 μM and 1 μM and then in the above-mentioned medium containing 50 nM hPTH (1-34) for further 3 days. After the incubation, the ^45 Ca radioactivity in the medium and the bone was determined, and the proportion (%) of ^45 Ca released from the bone into the medium was calculated by the following formula.
Using the bone obtained from the same mouse and treated in the same manner without adding a test compound, as a control, the proportion (%) relative to the control group was determined according to the following formula.

Going from `COc1ccc(CN2N=C(c3ccc(Cl)cc3)c3ccccc3-n3c(C)nnc32)cc1` [Example 77, 6-(4-Chlorophenyl)-4-(4-methoxybenzyl)-1-methyl-4H-2,3,4,5,10b-pentaazabenz[e]azulene] to `Cc1nnc2n1-c1ccccc1C(c1ccc(Cl)cc1)=NN2Cc1cccnc1` [Example 98, 6-(4-Chlorophenyl)-1-methyl-4-(pyridin-3-ylmethyl)-4H-2,3,4,5,10b-pentaazabenz[e]azulene], the IC50 rises from 120 nM to 540 nM (4.5-fold).

Same assay, conditions: Mus musculus, 72 h, read-out: IC50 (inhibition of bone resorption)

`Cc1nnc2n1-c1ccccc1C(c1ccc(Cl)cc1)=NN2Cc1ccc(F)cc1` [Example 59, 6-(4-Chlorophenyl)-4-(4-fluorobenzyl)-1-methyl-4H-2,3,4,5,10b-pentaazabenz[e]azulene] and `C=C(Br)CN1N=C(c2ccc(Cl)cc2)c2ccccc2-n2c(C)nnc21` [Example 113, 4-(2-Bromo-2-propenyl)-6-(4-chlorophenyl)-1l-methyl-4H-2,3,4,5,10b-pentaazabenz[e]azulene] are within 1.5-fold of each other in IC50: 680 nM for the first, 500 nM for the second.

For `Cc1nnc2n1-c1ccc(Cl)cc1C(c1ccccc1)=NN2Cc1ccncc1` [Example 126, 8-Chloro-1-methyl-6-phenyl-4-(pyridin-4-ylmethyl)-4H-2,3,4,5,10b-pentaazabenz[e]azulene], the IC50 was 530 nM.

Same assay, conditions: Mus musculus, 72 h; 45Ca release, 50 nM hPTH (1-34), 3 days incubation; test concentrations 0.04, 0.2 and 1 μM; mean of 4 pairs; read-out: IC50 (inhibition of bone resorption)

Compared with `COc1ccc(CN2N=C(c3ccc(Cl)cc3)c3ccccc3-n3c(C)nnc32)cc1` [Example 40, 6-(4-Chlorophenyl)-4-(4-methoxybenzyl)-1-methyl-4H-2,3,4,5,10b-pentaazabenz[e]azulene], `COc1ccc(CN2N=C(c3ccc(C)cc3)c3ccccc3-n3c(C)nnc32)cc1` [Example 46, 4-(4-Methoxybenzyl)-1-methyl-6-(4-methylphenyl)-4H-2,3,4,5,10b-pentaazabenz[e]azulene] is 3.5-fold higher in IC50: 120 nM for the first, 420 nM for the second.

`COc1ccc(CN2N=C(c3ccc(Cl)cc3)c3ccccc3-n3c(C)nnc32)cc1OC` [Example 41, 6-(4-Chlorophenyl)-4-(3,4-dimethoxybenzyl)-1-methyl-4H-2,3,4,5,10b-pentaazabenz[e]azulene] and `COc1ccc(CN2N=C(c3ccc(Cl)cc3)c3ccccc3-n3c(C)nnc32)cc1Cl` [Example 85, 4-(3-Chloro-4-methoxybenzyl)-6-(4-chlorophenyl)-1-methyl-4H-2,3,4,5,10b-pentaazabenz[e]azulene] are within 1.5-fold of each other in IC50: 800 nM for the first, 860 nM for the second.

Compared with `Cc1nnc2n1-c1ccccc1C(c1ccc(Cl)cc1)=NN2Cc1cccc(C#N)c1` [Example 56, 6-(4-Chlorophenyl)-4-(3-cyanobenzyl)-1-methyl-4H-2,3,4,5,10b-pentaazabenz[e]azulene], `Cc1ccc(C2=NN(Cc3cccc(C#N)c3)c3nnc(C)n3-c3ccccc32)cc1` [Example 136, 4-(3-Cyanobenzyl)-1-methyl-6-(4-methylphenyl)-4H-2,3,4,5,10b-pentaazabenz [e]azulene] is 2.4-fold higher in IC50: 250 nM for the first, 590 nM for the second.

`Cc1nnc2n1-c1ccccc1C(c1ccc(Cl)cc1)=NN2Cc1ccccc1F` [Example 57, 6-(4-Chlorophenyl)-4-(2-fluorobenzyl)-1-methyl-4H-2,3,4,5,10b-pentaazabenz[e]azulene] and `Cc1nnc2n1-c1ccccc1C(c1ccc(Cl)cc1)=NN2Cc1cc(F)ccc1F` [Example 61, 6-(4-Chlorophenyl)-4-(2,5-difluorobenzyl)-1-methyl-4H-2,3,4,5,10b-pentaazabenz[e]azulene] are within 1.5-fold of each other in IC50: 720 nM for the first, 810 nM for the second.

`Cc1nnc2n1-c1ccccc1C(c1ccc(Cl)cc1)=NN2Cc1cccc(F)c1` [Example 58, 6-(4-Chlorophenyl)-4-(3-fluorobenzyl)-1-methyl-4H-2,3,4,5,10b-pentaazabenz[e]azulene] and `Cc1nnc2n1-c1ccccc1C(c1ccc(Cl)cc1)=NN2Cc1cccc(Cl)c1` [Example 70, 4-(3-Chlorobenzyl)-6-(4-chlorophenyl)-1-methyl-4H-2,3,4,5,10b-pentaazabenz[e]azulene] are within 1.5-fold of each other in IC50: 430 nM for the first, 640 nM for the second.

`Cc1nnc2n1-c1ccccc1C(c1ccc(Cl)cc1)=NN2Cc1cc(F)cc(F)c1` [Example 62, 6-(4-Chlorophenyl)-4-(3,5-difluorobenzyl)-1-methyl-4H-2,3,4,5,10b-pentaazbenz[e]azulene] and `Cc1nnc2n1-c1ccccc1C(c1ccc(Cl)cc1)=NN2Cc1ccc(F)c(F)c1` [Example 63, 6-(4-Chlorophenyl)-4-(3,4-difluorobenzyl)-1-methyl-4H-2,3,4,5,10b-pentaazabenz[e]azulene] are within 1.5-fold of each other in IC50: 710 nM for the first, 740 nM for the second.

Compared with `Cc1nnc2n1-c1ccccc1C(c1ccc(Cl)cc1)=NN2Cc1cccc([N+](=O)[O-])c1` [Example 68, 6-(4-Chlorophenyl)-1-methyl-4-(3-nitrobenzyl)-4H-2,3,4,5,10b-pentaazabenz[e]azulene], `Cc1nnc2n1-c1ccccc1C(c1ccc(Cl)cc1)=NN2Cc1ccc([N+](=O)[O-])cc1` [Example 122, 6-(4-Chlorophenyl)-1-methyl-4-(4-nitrobenzyl)-4H-2,3,4,5,10b-pentaazabenz[e]azulene] is 2.2-fold higher in IC50: 330 nM for the first, 720 nM for the second.

Going from `Cc1nnc2n1-c1ccccc1C(c1ccc(Cl)cc1)=NN2Cc1ccc(C#N)cc1` [Example 74, 6-(4-Chlorophenyl)-4-(4-cyanobenzyl)-1-methyl-4H-2,3,4,5,10b-pentaazabenz[e]azulene] to `Cc1nnc2n1-c1ccccc1C(c1ccc(Cl)cc1)=NN2Cc1ccc(S(C)(=O)=O)cc1` [Example 121, 6-(4-Chlorophenyl)-1-methyl-4-(4-methylsulfonylbenzyl)-4H-2,3,4,5,10b-pentaazabenz[e]azulene], the IC50 falls from 430 nM to 140 nM (3.1-fold). The second is the more potent here.

`COc1cccc(CN2N=C(c3ccc(Cl)cc3)c3ccccc3-n3c(C)nnc32)c1` [Example 76, 6-(4-Chlorophenyl)-4-(3-methoxybenzyl)-1-methyl-4H-2,3,4,5,10b-pentaazabenz[e]azulene] and `Cc1cccc(CN2N=C(c3ccc(Cl)cc3)c3ccccc3-n3c(C)nnc32)c1` [Example 88, 6-(4-Chlorophenyl)-1-methyl-4-(3-methylbenzyl)-4H-2,3,4,5,10b-pentaazabenz[e]azulene] are within 1.5-fold of each other in IC50: 560 nM for the first, 590 nM for the second.

`COc1cc(CN2N=C(c3ccc(Cl)cc3)c3ccccc3-n3c(C)nnc32)cc(OC)c1OC` [Example 79, 6-(4-Chlorophenyl)-1-methyl-4-(3,4,5-trimethoxybenzyl)-4H-2,3,4,5,10b-pentaazabenz[e]azulene] and `COc1ccc(CN2N=C(c3ccc(Cl)cc3)c3ccccc3-n3c(C)nnc32)cc1[N+](=O)[O-]` [Example 84, 6-(4-Chlorophenyl)-4-(4-methoxy-3-nitrobenzyl)-1-methyl-4H-2,3,4,5,10b-pentaazabenz[e]azulene] are within 1.5-fold of each other in IC50: 570 nM for the first, 670 nM for the second.

`Cc1nnc2n1-c1ccccc1C(c1ccc(Cl)cc1)=NN2Cc1ccc2c(c1)OCO2` [Example 81, 6-(4-Chlorophenyl)-1-methyl-4-(3,4-methylenedioxybenzyl)-4H-2,3,4,5,10b-pentaazabenz[e]azulene] and `Cc1nnc2n1-c1ccccc1C(c1ccc(Cl)cc1)=NN2Cc1ccccc1` [Example 94, 4-Benzyl-6-(4-chlorophenyl)-1-methyl-4H-2,3,4,5,10b-pentaazabenz[e]azulene] are within 1.5-fold of each other in IC50: 590 nM for the first, 560 nM for the second.

`Cc1nc(CN2N=C(c3ccc(Cl)cc3)c3ccccc3-n3c(C)nnc32)cs1` [Example 100, 6-(4-Chlorophenyl)-4-(2-methyl-1,3-thiazol-4-ylmethyl)-1-methyl-4H-2,3,4,5,10b-pentaazabenz[e]azulene] and `C=C(C)CN1N=C(c2ccc(Cl)cc2)c2ccccc2-n2c(C)nnc21` [Example 111, 6-(4-Chlorophenyl)-1-methyl-4-(2-methyl-2-propenyl)-4H-2,3,4,5,10b-pentaazabenz[e]azulene] are within 1.5-fold of each other in IC50: 710 nM for the first, 510 nM for the second.

Compared with `Cc1nnc2n1-c1ccccc1C(c1ccc(Cl)cc1)=NN2CC1CC1` [Example 106, 6-(4-Chlorophenyl)-4-cyclopropylmethyl-1-methyl-4H-2,3,4,5,10b-pentaazabenz[e]azulene], `C=C(Cl)CN1N=C(c2ccc(Cl)cc2)c2ccccc2-n2c(C)nnc21` [Example 112, 6-(4-Chlorophenyl)-4-(2-chloro-2-propenyl)-1l-methyl-4H-2,3,4,5,10b-pentaazabenz[e]azulene] is 2.2-fold lower in IC50: 830 nM for the first, 380 nM for the second. The second is the more potent here.

First: Cc1nnc2n1-c1ccccc1C(c1ccc(Cl)cc1)=NN2Cc1ccncc1 [Example 120, 6(4-Chlorophenyl)-1-methyl-4-(pyridin-4-ylmethyl)-4H-2,3,4,5,10b-pentaazabenz[e]azulene]
Second: Cc1ccc(C2=NN(Cc3ccncc3)c3nnc(C)n3-c3ccccc32)cc1 [Example 135, 1-Methyl-6-(4-methylphenyl)-4-(pyridin-4-ylmethyl)-4H-2,3,4,5,10b-pentaazabenz[e]azulene]
The IC50 of the first is 1.9-fold lower: 220 nM for the first, 410 nM for the second.

`Cc1nnc2n1-c1ccccc1C(c1ccc(Cl)cc1)=NN2Cc1cc(Cl)nc(Cl)c1` [Example 123, 6-(4-Chlorophenyl)-4-(2,6-dichloropyridin-4-ylmethyl)-1-methyl-4H-2,3,4,5,10b-pentaazabenz[e]azulene] and `Cc1nnc2n1-c1ccccc1C(c1ccccc1)=NN2Cc1ccncc1` [Example 129, 1-Methyl-6-phenyl-4-(pyridin-4-ylmethyl)-4H-2,3,4,5,10b-pentaazabenz[e]azulene] are within 1.5-fold of each other in IC50: 650 nM for the first, 780 nM for the second.

Compared with `Cc1nnc2n1-c1ccccc1C(c1ccccc1)=NN2Cc1cccnc1` [Example 128, 1-Methyl-6-phenyl-4-(pyridin-3-ylmethyl)-4H-2,3,4,5,10b-pentaazabenz[e]azulene], `Cc1nnc2n1-c1ccc([N+](=O)[O-])cc1C(c1ccccc1)=NN2Cc1ccncc1` [Example 134, 1-Methyl-8-nitro-6-phenyl-4-(pyridin-4-ylmethyl)-4H-2,3,4,5,10b-pentaazabenz[e]azulene] is 5.2-fold lower in IC50: 930 nM for the first, 180 nM for the second.

Compared with `Cc1sc2c(c1C)C(c1ccc(Cl)cc1)=NN(Cc1cccnc1)c1nnc(C)n1-2` [Example 139, 4-(4-Chlorophenyl)-2,3,9-trimethyl-6-(pyridin-3-ylmethyl)-6H-5,6,7,8,9a-pentaazathien[2,3-e]azulene], `Cc1sc2c(c1C)C(c1ccc(Cl)cc1)=NN(Cc1ccncc1)c1nnc(C)n1-2` [Example 140, 4-(4-Chlorophenyl)-2,3,9-trimethyl-6-(pyridin-4-ylmethyl)-6H-5,6,7,8,9a-pentaazathien[2,3-e]azulene] is 2.8-fold higher in IC50: 18 nM for the first, 50 nM for the second.
